Patent US5679640A, “Immunosuppressant peptides” (priority 1995, dated 1997)
Non-standard residues stand in square brackets, D forms with d. Residues, ends and D or L forms follow the SMILES beside them. *: point of attachment. Acetyl(1-adamantyl) = O=C(CC12CC3CC(CC(C3)C1)C2)*

Legend:
[1] = tested on: DR4w14; test: DR-peptide binding assay, DR4w14; parameters: species or system human; details: for MHC Binding Assay DR4w14: Table 3, […]
Method: DR-peptide binding assay. Purified DR molecules (10-1,000 nM) were incubated with 10 nM ^125 I-radiolabeled peptide for 48 hours in the presence of added protease inhibitors. […] The final concentrations of protease inhibitors were: 1 mM PMSF, 1.3 mM 1,10-phenanthroline, 73 μM pepstatin A, 8 mM EDTA, 6 mM N-ethyl maleimide, and 200 μM Nα-p-tosyl-L-lysine chloromethyl ketone (TLCK). The final detergent concentration in the incubation mixture was 0.05% NP-40. Several of the peptides screened were hydrophobic and required DMSO to maintain solubility and reduce peptide adsorption to surfaces. In these instances peptide stock solutions were prepared in neat DMSO, and the final DMSO concentration in the incubation mixture was adjusted to 5%. […] The DR-peptide complexes were separated from free peptide by gel filtration on a Sephadex G50 (Pharmacia Fine Chemicals, Piscataway, N.J.) column (23×1.3 cm), as previously described. […] The columns were eluted using PBS (0.5% NP-40, 0.1% NAN3) collected in 1 ml fractions, which were then assayed for radioactivity. The fraction of peptide bound to DR (α) relative to the total amount of offered peptide was determined as the ratio of peptide in the void volume to the total peptide recovered. The α was corrected by subtracting the negative control (^125 I-peptide incubated for two days at room temperature in the presence of protease inhibitors and 120 μg/ml of unlabeled peptide, but in the absence of any DR).
To obtain a figure that positively correlated with the binding affinity, the data were expressed as relative binding values.

[2] = in vitro; details: human, serum
[3] = biological target: T1, HLA-DR1 (Homo sapiens, UniProt P01903+P01911, A100R/D57E/F55L/F60I/F76Y/I96L/L162R/M171V/P40L/Q125E/R42F/V115G/Y59C); test: DR-peptide binding assay, DR1; details: for MHC Binding Assay DR1: Table 3, binding affinity relative to HA 307-319 = 1
T1 construct: EBV-transformed homozygous cell lines were used as a source of DR molecules; endogenous in cells; host or cells: LG-2 (EBV-transformed human B cell line, DR1 homozygous); lysate purified on a monoclonal antibody LB3.1 column

[4] = biological target: T2, DR4w4 (Homo sapiens, UniProt P01903+P01911, A100K/A169T/F76Y/I96L/K127E/L162R/M171V/N62H/P40V/Q125Y/R42H/S133A/S149N/S66Y/V115G/V209L/W38E); test: DR-peptide binding assay, DR4w4; details: for MHC Binding Assay DR4w4: Table 3, binding affinity relative to HA 307-319 = 1
T2 construct: EBV-transformed homozygous cell lines were used as a source of DR molecules; endogenous in cells; host or cells: Preiss or Beh (EBV-transformed human B cell lines, DR4 Dw4 homozygous); lysate purified on a monoclonal antibody LB3.1 column

[5] = Table 6, binding affinity relative to HA 307-319 = 1

Structure (SMILES)	DR4w14 ([1]; Table 6, […])	half-life at 50 µg/mL [2] [h]	DR1 [3, 5]	DR4w4 [4, 5]	MHC Binding Assay DR4w14 [1]	half-life [2] [h]	MHC Binding Assay DR1 [3]	MHC Binding Assay DR4w4 [4]
C[C@H](NC(=O)CC12CC3CC(CC(C3)C1)C2)C(=O)N[C@@H](C)C(=O)N[C@@H](C)C(=O)N[C@@H](CCCCN)C(=O)N[C@H](C(=O)N[C@@H](C)C(=O)N[C@@H](C)C(=O)N[C@@H](C)C(=O)N[C@@H](Cc1ccccc1)C(=O)N[C@H](C)C(=O)O)[C@@H](C)O ({Acetyl(1-adamantyl)}-AAAKTAAAF[dA]-OH; C-terminus assumed)	++ (affinity greater than 1.0)	7.2	+ (0.51 to 1.0)	++ (affinity greater than 1.0)	–	–	–	–
C[C@H](NC(=O)[C@H](N)Cc1ccc(O)cc1)C(=O)N[C@@H](C)C(=O)N[C@@H](Cc1ccccc1)C(=O)N[C@@H](C)C(=O)N[C@@H](C)C(=O)N[C@@H](C)C(=O)N[C@@H](CCCCN)C(=O)N[C@H](C(=O)N[C@@H](C)C(=O)N[C@@H](C)C(=O)N[C@@H](C)C(=O)N[C@@H](Cc1ccccc1)C(=O)N[C@H](C)C(N)=O)[C@@H](C)O (H-[dY]AAFAAAKTAAAF[dA]-NH2)	–	–	–	–	++ (affinity greater than 1.0)	5	++ (affinity greater than 1.0)	++ (affinity greater than 1.0)
C[C@H](NC(=O)[C@H](N)Cc1ccc(O)cc1)C(=O)N[C@@H](C)C(=O)N[C@@H](Cc1ccccc1)C(=O)N[C@@H](C)C(=O)N[C@@H](C)C(=O)N[C@@H](C)C(=O)N[C@@H](CCCCN)C(=O)N[C@H](C(=O)N[C@@H](C)C(=O)N[C@@H](C)C(=O)N[C@@H](C)C(=O)N[C@@H](C)C(=O)N[C@H](C)C(=O)O)[C@@H](C)O (H-[dY]AAFAAAKTAAAA[dA]-OH)	–	–	–	–	++ (affinity greater than 1.0)	8.85	++ (affinity greater than 1.0)	++ (affinity greater than 1.0)
CC(=O)N[C@H](Cc1ccc(O)cc1)C(=O)N[C@@H](C)C(=O)N[C@@H](C)C(=O)N[C@@H](Cc1ccccc1)C(=O)N[C@@H](C)C(=O)N[C@@H](C)C(=O)N[C@@H](C)C(=O)N[C@@H](CCCCN)C(=O)N[C@H](C(=O)N[C@@H](C)C(=O)N[C@@H](C)C(=O)N[C@@H](C)C(=O)N[C@@H](C)C(=O)N[C@H](C)C(=O)O)[C@@H](C)O (Ac-[dY]AAFAAAKTAAAA[dA]-OH)	–	–	–	–	++ (affinity greater than 1.0)	6.77	± (0.1 to 0.50)	++ (affinity greater than 1.0)
